Source: publication PMC5421464, “Characterization of the single-subunit oligosaccharyltransferase STT3A from Trypanosoma brucei using synthetic peptides and lipid-linked oligosaccharide analogs” (Glycobiology, 2017)
Marks after values point to notes of the source that are not given here. Ends that are not written are not given here. * marks the point of attachment. 5FAM = O=C1OC2(c3ccc(O)cc3Oc3cc(O)ccc32)c2ccc(C(=O)*)cc21

Assays:
Format in all cases: biochemical
[1] = biological target: T1, TbSTT3A (Trypanosoma brucei, UniProt Q57W34); assay: Michaelis-Menten kinetics of the LLO analogs; details: for kcat (LLO analog): 20 nM TbSTT3A, 10 µM acceptor peptide, varying LLO analog concentration
T1 sequence (Q57W34 1-801): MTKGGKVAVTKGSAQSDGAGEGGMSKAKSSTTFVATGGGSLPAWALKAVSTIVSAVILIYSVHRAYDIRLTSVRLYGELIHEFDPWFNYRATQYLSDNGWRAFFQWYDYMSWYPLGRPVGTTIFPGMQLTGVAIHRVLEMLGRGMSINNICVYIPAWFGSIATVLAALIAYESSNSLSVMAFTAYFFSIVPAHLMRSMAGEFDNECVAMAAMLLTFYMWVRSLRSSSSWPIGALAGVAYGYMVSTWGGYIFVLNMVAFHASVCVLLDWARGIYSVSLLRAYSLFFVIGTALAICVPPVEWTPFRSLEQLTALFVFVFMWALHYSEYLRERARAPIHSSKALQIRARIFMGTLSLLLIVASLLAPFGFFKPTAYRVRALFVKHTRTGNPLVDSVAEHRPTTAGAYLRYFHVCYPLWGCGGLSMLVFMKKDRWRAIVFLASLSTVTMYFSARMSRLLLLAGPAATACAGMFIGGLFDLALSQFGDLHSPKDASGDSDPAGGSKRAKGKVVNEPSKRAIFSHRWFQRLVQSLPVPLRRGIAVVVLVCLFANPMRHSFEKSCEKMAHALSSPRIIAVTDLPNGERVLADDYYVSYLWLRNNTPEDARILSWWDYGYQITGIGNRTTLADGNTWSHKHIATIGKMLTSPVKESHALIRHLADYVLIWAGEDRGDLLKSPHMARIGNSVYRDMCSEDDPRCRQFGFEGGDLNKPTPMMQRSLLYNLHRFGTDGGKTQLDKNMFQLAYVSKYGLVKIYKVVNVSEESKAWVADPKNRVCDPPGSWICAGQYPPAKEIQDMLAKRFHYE
Procedure: Fig. 3. (A) Structure of the LLO analogs synthesized (1a) (S)-Citronellyl-PP-Chitobiose, C10; (1b) farnesyl-PP-chitobiose, C15; (1c) (S)-NerylCitronellyl-PP-chitobiose, C20; (1d) (S)-farnesylCitronellyl-PP-chitobiose, C25. (B) Kinetic analysis of synthetic LLO analogs. Glycosylation experiments were performed with 20 nM purified TbSTT3A, 10 µM […], 10 mM MnCl2, 150 mM NaCl, 20 mM Hepes pH 7.5, 0.035% DDM, 0.007% CHS and different concentrations of synthetic LLO analogs. Data points reflect the mean of 3 separate measurements. Error bars indicate standard deviations. Data were fitted by nonlinear regression according to the Michaelis–Menten formula using PRISM software. This figure is available in black and white in print and in color at Glycobiology online.
For Michaelis–Menten kinetics of the LLO analogs, reaction mixtures containing 20 nM TbSTT3A protein, 10 µM peptide P11, 10 mM MnCl2, 150 mM NaCl, 20 mM Hepes pH 7.5, 0.035% DDM and 0.007% CHS were incubated with different concentrations of LLO analogs (10–900 µM, for 1a; 2–60 µM, for 1b; 1–50 µM, for 1c and 1–20 µM, for 1d). Samples were taken at different time points and turnover rates of the reactions were determined as before. Data were fitted by nonlinear regression according to the Michaelis–Menten formula using PRISM software.

[2] = biological target: T1, TbSTT3A; assay: In vitro glycosylation assay, turnover rate of acceptor peptides (Tricine SDS-PAGE fluorescence)
Procedure: (§1) Fig. 2. Optimization of the acceptor peptide sequence. (A) Synthetic acceptor peptides are shown in single letter code. The acceptor asparagine (zero position of the sequon) is indicated in red. Glycosylation experiments were performed and the fluorescently labeled substrate (G0) and product (G1) were quantified following Tricine SDS-PAGE analysis. (B) Turnover rates after fitting the time points by linear regression using PRISM. Error bars indicate standard error of the fitting. (C) Kinetic analysis of substrate peptides: glycosylation experiments were performed with 20 nM purified TbSTT3A, 50 µM farnesyl-PP-chitobiose, 10 mM MnCl2, 150 mM NaCl, 20 mM Hepes pH 7.5, 0.035% DDM, 0.007% CHS and different concentrations of peptides varying from 2 to 60 µM. Data points reflect the mean of three separate measurements. Error bars indicate standard deviations. Data were fitted by nonlinear regression according to the Michaelis–Menten formula using PRISM. This figure is available in black and white in print and in color at Glycobiology online.
Reaction mixtures contained 20 nM purified TbSTT3A protein, 50µM farnesyl-PP-GlcNAc or farnesyl-PP-chitobiose, 10 mM MnCl2, 150 mM NaCl, 20 mM Hepes pH 7.5, 0.035% DDM, 0.007% CHS and 20 µM of the peptide. Reactions were incubated at 30°C. Samples were taken at different time points and reactions were stopped by the addition of 4X SDS Laemmli buffer. Samples were diluted 200-fold prior to analysis by Tricine SDS-PAGE consisting of a 16% resolving gel with 6 M urea, a 10% spacer gel and a 4% stacking gel ([Schägger 2006]). Fluorescent bands for peptide and glycopeptide were visualized by using a Typhoon Trio Plus imager (GE Healthcare) with excitation set at 488 nm and using a 526 nm SP emission filter. The amount of formed glycopeptide was determined from band intensities of fluorescence gel scans (ImageJ) ([Gerber et al. 2013]). Turnover rate determination was performed by fitting of the data to linear regression using PRISM software.
Supplementary Figure 2: Glycosylation Assays with farnesyl-PP-GlcNAc. In vitro glycosylation experiments were performed with 20nM purified TbStt3A purified protein, 50µM Farnesyl-PP-GlcNAc or Farnesyl-PP-GlcNac2, 10 mM MnCl2, 150 mM NaCl, 20 mM Hepes pH 7.5, 0.035% DDM, 0.007% CHS and 10 µM of the peptide P1.

[3] = biological target: T1, TbSTT3A; assay: Michaelis-Menten kinetics of the peptides; details: 20 nM TbSTT3A, 50 µM farnesyl-PP-chitobiose, peptide 2-60 µM, 30°C
Procedure: as §1
For Michaelis–Menten kinetics of the peptides, reaction mixtures containing 20 nM TbSTT3A protein, 50 µM farnesyl-PP-chitobiose, 10 mM MnCl2, 150 mM NaCl, 20 mM Hepes pH 7.5, 0.035% DDM and 0.007% CHS were incubated with varying concentrations (2–60 µM) of peptides P11, P13 and P14. Samples were taken at different time points and the turnover rate of the reactions were determined as before. Data were fitted by nonlinear regression according to the Michaelis–Menten formula using PRISM software.

[4] = biological target: T1, TbSTT3A; assay: Inhibition analysis with LLO competitive inhibitors; details: 20 nM TbSTT3A, 10 µM peptide P11, inhibitor 1-2500 µM preincubated 5 min, 15 µM farnesyl-PP-chitobiose 1b
Procedure: Fig. 5. (A) Structure of the LLO inhibitors synthesized (34b) farnesyl-PP-C-chitobiose, C15; (34d) (S)-farnesylCitronellyl-PP-C-chitobiose, C25. (B) Kinetic analysis of synthetic LLO inhibitors. Glycosylation experiments were performed with 20 nM TbSTT3A protein, 10 µM peptide P11, 10 mM MnCl2, 150 mM NaCl, 20 mM Hepes pH 7.5, 0.035% DDM and 0.007% CHS. Samples were incubated with LLO competitive inhibitors (1–2500 µM) for 5 min before adding 15 µM of farnesyl-PP-chitobiose, 1b. Data points reflect the mean of three separate measurements. Error bars indicate standard deviations. Data were fitted by nonlinear regression using PRISM software. This figure is available in black and white in print and in color at Glycobiology online.
For inhibition analysis, reaction mixtures containing 20 nM TbSTT3A protein, 10 µM peptide P11, 10 mM MnCl2, 150 mM NaCl, 20 mM Hepes pH 7.5, 0.035% DDM and 0.007% CHS were incubated with different concentrations of LLO competitive inhibitors (1–2500 µM) for 5 min at 30°C. Reactions were started with addition of 15 µM of farnesyl-PP-chitobiose, 1b. Samples were taken at different time points and turnover rates of the reactions were determined as before. Data were fitted to nonlinear regression and IC50 was determined using PRISM software.

## CC(=O)NC1C(OC2C(CO)OC(OP(=O)(O)OP(=O)(O)OCCC(C)CCC=C(C)CCC=C(C)CCC=C(C)C)C(NC(C)=O)C2O)OC(CO)C(O)C1O [1c, P1-2-acetamido-O-(2-acetamido-2-deoxy-β-D-glucopyranosyl)-(1-4)-2-deoxy-α-D-glucopyranosyl P2-(3S,6Z,10Z)-3,7,11,15-tetramethylhexadeca-6,10,14-trien-1-yl diphosphate]
[1]
  kcat (LLO analog): 23 ± 1 pep/min

## 5CF-GSDANYTYTQ (5FAM-GSDANYTYTQ) [P14, 5-carboxyfluorescein labeled acceptor peptide, P11 elongated at the C-terminus]
[2]; from the initial DANYTK to GSDANYTYTQ
  Increase in glycosylation turnover: about 3 fold
[3]
  kcat (substrate peptide): 28 ± 1 pep/min
[3]; read-out: KM (substrate peptide)
  Km: 28 ± 3 µM

## CC(=O)N[C@H]1[C@@H](OP(=O)(O)OP(=O)(O)OC/C=C(\C)CC/C=C(\C)CCC=C(C)C)O[C@H](CO)[C@@H](O[C@@H]2O[C@H](CO)[C@@H](O)[C@H](O)[C@H]2NC(C)=O)[C@@H]1O [1b, P1-2-acetamido-O-(2-acetamido-2-deoxy-β-D-glucopyranosyl)-(1-4)-2-deoxy-α-D-glucopyranosyl P2-(2E,6E)-3,7,11-Trimethyldodeca-2,6,10-trien-1-yl diphosphate]
[1]
  kcat (LLO analog): 12 ± 1 pep/min
[1]; from KM values, Table II
  Apparent affinity lower compared to 1d: 2 fold

## CC(=O)N[C@@H]1[C@@H](O)[C@H](O[C@@H]2O[C@H](CO)[C@@H](O)[C@H](O)[C@H]2NC(C)=O)[C@@H](CO)O[C@@H]1CP(=O)(O)OP(=O)(O)OCC[C@@H](C)CC/C=C(/C)CC/C=C(\C)CC/C=C(\C)CCC=C(C)C [34d, (((2S,3R,4R,5S,6R)-3-acetamido-5-(((2S,3R,4R,5S,6R)-3-acetamido-4,5-dihydroxy-6-(hydroxymethyl)tetrahydro-2H-pyran-2-yl)oxy)-4-hydroxy-6-(hydroxymethyl)tetrahydro-2H-pyran-2-yl)methyl)phosphonic ((S,6Z,10E,14E)-3,7,11,15,19-pentamethylicosa-6,10,14,18-tetraen-1-ylphosphoric) anhydride]
[4]
  IC50: 26 ± 3 µM

## 5CF-GSDANYTY (5FAM-GSDANYTY) [P11, 5-carboxyfluorescein labeled acceptor peptide]
[2]; farnesyl-PP-chitobiose 1b donor
  Glycosylation of acceptor peptide (result in words): highest turnover rate
[3]
  kcat (substrate peptide): 37 ± 5^a pep/min

## CC(=O)N[C@H]1[C@@H](OP(=O)(O)OP(=O)(O)OCC[C@@H](C)CCC=C(C)C)O[C@H](CO)[C@@H](O[C@@H]2O[C@H](CO)[C@@H](O)[C@H](O)[C@H]2NC(C)=O)[C@@H]1O [1a, P1-2-acetamido-O-(2-acetamido-2-deoxy-β-D-glucopyranosyl)-(1-4)-2-deoxy-α-D-glucopyranosyl P2-(S)-3,7-dimethyloct-6-en-1-yl diphosphate]
[1]
  kcat (LLO analog): 9.1 ± 0.5 pep/min

## CC(=O)N[C@@H]1[C@@H](O)[C@H](O[C@@H]2O[C@H](CO)[C@@H](O)[C@H](O)[C@H]2NC(C)=O)[C@@H](CO)O[C@@H]1CP(=O)(O)OP(=O)(O)OC/C=C(\C)CC/C=C(\C)CCC=C(C)C [34b, (((2S,3R,4R,5S,6R)-3-acetamido-5-(((2S,3R,4R,5S,6R)-3-acetamido-4,5-dihydroxy-6-(hydroxymethyl)tetrahydro-2H-pyran-2-yl)oxy)-4-hydroxy-6-(hydroxymethyl)tetrahydro-2H-pyran-2-yl)methyl)phosphonic ((2E,6E)-3,7,11-trimethyldodeca-2,6,10-trien-1-ylphosphoric) anhydride]
[4]
  IC50: 167 ± 14 µM

## CC(=O)N[C@H]1[C@@H](OP(=O)(O)OP(=O)(O)OCC[C@@H](C)CC/C=C(/C)CC/C=C(\C)CC/C=C(\C)CCC=C(C)C)O[C@H](CO)[C@@H](O[C@@H]2O[C@H](CO)[C@@H](O)[C@H](O)[C@H]2NC(C)=O)[C@@H]1O [1d, P1-2-acetamido-O-(2-acetamido-2-deoxy-β-D-glucopyranosyl)-(1-4)-2-deoxy-α-D-glucopyranosyl P2-(S,6Z,10E,14E)-3,7,11,15,19-pentamethylicosa-6,10,14,18-tetraen-1-yl diphosphate]
[1]
  kcat (LLO analog): 16 ± 1 pep/min
